In patent US11618743B2, “Herbicidal compounds” (SYNGENTA PARTICIPATIONS AG, priority 2017, dated 2023):

Tests used:
Assay in all cases: Post-emergence efficacy, Method A
Type in all cases: in vivo
[1] = test system: Echinochloa crus-galli (ECHCG); details: Application rate 500 g/Ha, evaluated after 13 days; for Control of weed species after post-emergence application, ECHCG: 100=total damage to plant, 0=no damage; for Control of weed species ECHCG after post-emergence application (100=total damage to plant; 0=no damage to plant): Method A
Method: (§1) Seeds of a variety of test species were sown in standard soil in pots. After cultivation for 14 days (post-emergence) under controlled conditions in a glasshouse (at 24/16° C., day/night; 14 hours light; 65% humidity), the plants were sprayed with an aqueous spray solution derived from the dissolution of the technical active ingredient formula (I) in a small amount of acetone and a special solvent and emulsifier mixture referred to as IF50 (11.12% Emulsogen EL360 TM+44.44% N-methylpyrrolidone+44.44% Dowanol DPM glycol ether), to create a 50 g/l solution which was then diluted to required concentration using 0.25% or 1% Empicol ESC70 (Sodium lauryl ether sulphate)+1% ammonium sulphate as diluent.
(§2) The test plants were then grown in a glasshouse under controlled conditions (at 24/16° C., day/night; 14 hours light; 65% humidity) and watered twice daily. After 13 days the test was evaluated (100=total damage to plant; 0=no damage to plant).
(§3) Ipomoea hederacea (IPOHE), Euphorbia heterophylla (EPHHL), Chenopodium album (CHEAL), Amaranthus palmeri (AMAPA), Lolium perenne (LOLPE), Digitaria sanguinalis (DIGSA), Eleusine indica (ELEIN), Echinochloa crus-galli (ECHCG), Setaria faberi (SETFA)

[2] = test system: Euphorbia heterophylla (EPHHL); details: Application rate 500 g/Ha, evaluated after 13 days; for Control of weed species after post-emergence application, EPHHL: 100=total damage to plant, 0=no damage; for Control of weed species EPHHL after post-emergence application (100=total damage to plant; 0=no damage to plant): Method A
Method: as §1, §2, §3

[3] = test system: Chenopodium album (CHEAL); details: Application rate 500 g/Ha, evaluated after 13 days; for Control of weed species after post-emergence application, CHEAL: 100=total damage to plant, 0=no damage; for Control of weed species CHEAL after post-emergence application (100=total damage to plant; 0=no damage to plant): Method A
Method: as §1, §2, §3

[4] = test system: Digitaria sanguinalis (DIGSA); details: Application rate 500 g/Ha, evaluated after 13 days; for Control of weed species after post-emergence application, DIGSA: 100=total damage to plant, 0=no damage; for Control of weed species DIGSA after post-emergence application (100=total damage to plant; 0=no damage to plant): Method A
Method: as §1, §2, §3

Eleusine indica (ELEIN) = details: Application rate 500 g/Ha, evaluated after 13 days; for Control of weed species after post-emergence application, ELEIN: 100=total damage to plant, 0=no damage; for Control of weed species ELEIN after post-emergence application (100=total damage to plant; 0=no damage to plant): Method A
Method: as §1, §2, §3

[5] = test system: Amaranthus palmeri (AMAPA); details: Application rate 500 g/Ha, evaluated after 13 days; for Control of weed species after post-emergence application, AMAPA: 100=total damage to plant, 0=no damage; for Control of weed species AMAPA after post-emergence application (100=total damage to plant; 0=no damage to plant): Method A
Method: as §1, §2, §3

Setaria faberi (SETFA) = details: Application rate 500 g/Ha, evaluated after 13 days; for Control of weed species after post-emergence application, SETFA: 100=total damage to plant, 0=no damage; for Control of weed species SETFA after post-emergence application (100=total damage to plant; 0=no damage to plant): Method A
Method: as §1, §2, §3

Row | Compound | Control of weed species after post-emergence application, ECHCG [1] | Control of weed species after post-emergence application, EPHHL [2] | Control of weed species after post-emergence application, CHEAL [3] | Control of weed species after post-emergence application, DIGSA [4] | Control of weed species after post-emergence application, ELEIN (Eleusine indica (ELEIN)) | Control of weed species after post-emergence application, AMAPA [5] | Control of weed species after post-emergence application, SETFA (Setaria faberi (SETFA)) | Control of weed species ECHCG after post-emergence application (100=total damage to plant; 0=no damage to plant) [1] | Control of weed species EPHHL after post-emergence application (100=total damage to plant; 0=no damage to plant) [2] | Control of weed species SETFA after post-emergence application (100=total damage to plant; 0=no damage to plant) (Setaria faberi (SETFA)) | Control of weed species CHEAL after post-emergence application (100=total damage to plant; 0=no damage to plant) [3] | Control of weed species DIGSA after post-emergence application (100=total damage to plant; 0=no damage to plant) [4] | Control of weed species ELEIN after post-emergence application (100=total damage to plant; 0=no damage to plant) (Eleusine indica (ELEIN)) | Control of weed species AMAPA after post-emergence application (100=total damage to plant; 0=no damage to plant) [5]
1 | Nc1cc(-c2cc[n+](CCC(=O)O)nc2)ncn1.O=C([O-])C(F)(F)F [Compound A163] | 40 | 50 | 60 | 50 | 90 | 100 |  |  |  |  |  |  |  | 
2 | O=C(O)C(O)C[n+]1ccc(-c2ncccn2)cn1.O=C([O-])C(F)(F)F (centres unmarked) [Compound A180] | 70 | 80 | 90 | 60 | 90 | 100 | 70 |  |  |  |  |  |  | 
3 | O=C(O)CC[n+]1ccc(-c2cncc(C(F)(F)F)n2)cn1.O=C([O-])C(F)(F)F [Compound A120] |  |  |  |  |  |  |  | 40 | 50 | 40 | 70 | 40 | 30 | 90
4 | COC(=O)C(C)[n+]1ccc(-c2ncccn2)cn1.O=C([O-])C(F)(F)F (centres unmarked) [Compound A192] | 30 | 40 | 60 | 30 | 30 | 90 | 20 |  |  |  |  |  |  | 
5 | Cc1n[n+](CCC(=O)O)ccc1-c1ncccn1.O=C([O-])C(F)(F)F [Compound A132] |  |  |  |  |  |  |  | 70 | 30 | 100 | 30 | 90 | 90 | 90
6 | COC(=O)CC[n+]1ccc(-c2ccncc2)cn1.O=C([O-])C(F)(F)F [Compound A203] | 50 | 50 | 90 | 70 | 60 | 100 | 60 |  |  |  |  |  |  | 
7 | O=C(O)C(O)C[n+]1ccc(-c2ccncn2)cn1.O=C([O-])C(F)(F)F (centres unmarked) [Compound A190] | 60 | 80 | 80 | 60 | 70 | 100 | 40 |  |  |  |  |  |  | 
8 | O=C([O-])C(F)(F)F.O=P(O)(O)CC[n+]1ccc(-c2ncccn2)cn1 [Compound A198] | 80 | 100 | 100 | 80 | 80 | 100 | 90 |  |  |  |  |  |  | 
9 | Nc1cc(-c2cc[n+](CCC(=O)O)nc2)ccn1.O=C([O-])C(F)(F)F [Compound A210] | 10 | 10 | 10 | 60 | 20 | 70 | 30 |  |  |  |  |  |  | 
10 | O=C(O)c1ccc(C[n+]2ccc(-c3ncccn3)cn2)cc1.O=C([O-])C(F)(F)F [Compound A228] | 10 |  | 60 | 20 | 10 | 80 | 10 |  |  |  |  |  |  | 
11 | CC(CC(=O)O)[n+]1ccc(-c2ccncn2)cn1.O=C([O-])C(F)(F)F (centres unmarked) [Compound A172] | 50 | 50 | 60 | 80 | 70 | 30 | 50 |  |  |  |  |  |  | 
12 | CC(C)OC(=O)CC[n+]1ccc(-c2ncccn2)cn1.O=C([O-])C(F)(F)F [Compound A81, isopropyl 3-(4-pyrimidin-2-ylpyridazin-1-ium-1-yl)propanoate 2,2,2-trifluoroacetate] |  |  |  |  |  |  |  | 90 | 100 | 90 | 90 | 100 | 80 | 100
13 | Cc1nccc(-c2cc[n+](CCC(=O)O)nc2)n1.O=C([O-])C(F)(F)F [Compound A55] |  |  |  |  |  |  |  | 90 | 70 | 100 | 80 | 100 | 100 | 
14 | CC(C[n+]1ccc(-c2ccncn2)cn1)C(=O)O.O=C([O-])C(F)(F)F (centres unmarked) [Compound A171] | 60 |  | 80 | 60 | 80 | 100 | 60 |  |  |  |  |  |  | 
15 | N#Cc1ccc(-c2cc[n+](CCC(=O)O)nc2)nc1.O=C([O-])C(F)(F)F [Compound A176] | 30 |  | 30 | 30 | 70 | 40 | 40 |  |  |  |  |  |  | 
16 | O=C([O-])C(F)(F)F.O=P(O)(O)CCC[n+]1ccc(-c2ncccn2)cn1 [Compound A233] | 60 |  | 100 | 60 | 50 | 100 | 70 |  |  |  |  |  |  | 
17 | O=C([O-])C(F)(F)F.OCC[n+]1ccc(-c2ncccn2)cn1 [Compound A195, 2-(4-pyrimidin-2-ylpyridazin-1-ium-1-yl)ethanol 2,2,2-trifluoroacetate] | 10 |  | 60 | 20 | 10 |  |  |  |  |  |  |  |  | 
18 | N[C@@H](CC[n+]1ccc(-c2ncccn2)cn1)C(=O)O.O=C(O)C(F)(F)F.O=C([O-])C(F)(F)F [Compound A201, [(1S)-1-carboxy-3-(4-pyrimidin-2-ylpyridazin-1-ium-1-yl)propyl]ammonium 2,2,2-trifluoroacetate] | 70 |  |  | 80 |  |  | 80 |  |  |  |  |  |  | 
19 | COC(=O)c1ccc(C[n+]2ccc(-c3ncccn3)cn2)cc1.O=C([O-])C(F)(F)F [Compound A229] | 0 |  | 0 | 20 | 0 | 10 | 10 |  |  |  |  |  |  | 
